Test results taken from PubChem BioAssay (NCI).
Where “and” joins values, the source holds several entries; their conditions need not be identical. Equal values may be shown once.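 Values below derive from 48-hour exposures of cells grown in 96-well plates, with endpoints linearly interpolated between the two concentrations bracketing the appropriate inhibition level. Here, GI50 denotes the concentration required for 50% inhibition of growth. The concentration for full growth arrest is given as TGI.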

How the values were obtained:
Assay in all cases: DTP human tumour cell line panel, 48 h
HT29 colon = system: HT29 colon
SF-295 CNS = system: SF-295 CNS
RXF 393 renal = system: RXF 393 renal
SR leukemia = system: SR leukemia
SNB-78 CNS = system: SNB-78 CNS
OVCAR-4 ovarian = system: OVCAR-4 ovarian
OVCAR-3 ovarian = system: OVCAR-3 ovarian
LXFL 529 NSCLC = system: LXFL 529 NSCLC
CAKI-1 renal = system: CAKI-1 renal
SK-OV-3 ovarian = system: SK-OV-3 ovarian
SF-539 CNS = system: SF-539 CNS
SF-268 CNS = system: SF-268 CNS
UACC-62 melanoma = system: UACC-62 melanoma
NCI-H226 lung = system: NCI-H226 lung
OVCAR-8 ovarian = system: OVCAR-8 ovarian
HCT-116 colon = system: HCT-116 colon
U251 CNS = system: U251 CNS
M14 melanoma = system: M14 melanoma
SK-MEL-28 melanoma = system: SK-MEL-28 melanoma
SNB-19 CNS = system: SNB-19 CNS
LOX IMVI melanoma = system: LOX IMVI melanoma
HCC-2998 colon = system: HCC-2998 colon
XF 498 CNS = system: XF 498 CNS
TK-10 renal = system: TK-10 renal
UACC-257 melanoma = system: UACC-257 melanoma
SW-620 colon = system: SW-620 colon
HL-60(TB) leukemia = system: HL-60(TB) leukemia
MOLT-4 leukemia = system: MOLT-4 leukemia
KM12 colon = system: KM12 colon
EKVX NSCLC = system: EKVX NSCLC
UO-31 renal = system: UO-31 renal
KM20L2 colon = system: KM20L2 colon
ACHN renal = system: ACHN renal
A549 NSCLC = system: A549 NSCLC
IGROV1 ovarian = system: IGROV1 ovarian
SN12C renal = system: SN12C renal
DLD-1 colon = system: DLD-1 colon
COLO 205 colon = system: COLO 205 colon
HOP-62 NSCLC = system: HOP-62 NSCLC
HOP-18 NSCLC = system: HOP-18 NSCLC
MALME-3M melanoma = system: MALME-3M melanoma
SK-MEL-5 melanoma = system: SK-MEL-5 melanoma
NCI-H460 lung = system: NCI-H460 lung
M19-MEL melanoma = system: M19-MEL melanoma
SK-MEL-2 melanoma = system: SK-MEL-2 melanoma
SNB-75 CNS = system: SNB-75 CNS
786-0 renal = system: 786-0 renal
NCI-H23 lung = system: NCI-H23 lung
A498 renal = system: A498 renal
DMS 273 small cell lung = system: DMS 273 small cell lung
CCRF-CEM leukemia = system: CCRF-CEM leukemia
NCI-H522 lung = system: NCI-H522 lung
K-562 leukemia = system: K-562 leukemia
RXF-631 renal = system: RXF-631 renal
OVCAR-5 ovarian = system: OVCAR-5 ovarian
HCT-15 colon = system: HCT-15 colon
DMS 114 small cell lung = system: DMS 114 small cell lung
HOP-92 NSCLC = system: HOP-92 NSCLC
RPMI-8226 leukemia = system: RPMI-8226 leukemia

SMILES: Cc1cccc(C(C)(C)C)c1NC(=O)CCl
- TGI (HT29 colon): > 100 µM
- TGI (SF-295 CNS): > 100 µM
- TGI (RXF 393 renal): > 100 µM
- TGI (SR leukemia): > 100 µM
- TGI (SNB-78 CNS): > 100 µM
- TGI (OVCAR-4 ovarian): > 100 µM
- TGI (OVCAR-3 ovarian): > 100 µM
- TGI (LXFL 529 NSCLC): > 100 µM
- TGI (CAKI-1 renal): > 100 µM
- TGI (SK-OV-3 ovarian): > 100 µM
- TGI (SF-539 CNS): > 100 µM
- TGI (SF-268 CNS): > 100 µM
- TGI (UACC-62 melanoma): > 100 µM
- TGI (NCI-H226 lung): > 100 µM
- TGI (OVCAR-8 ovarian): > 100 µM
- TGI (HCT-116 colon): > 100 µM
- TGI (U251 CNS): > 100 µM
- TGI (M14 melanoma): > 100 µM
- TGI (SK-MEL-28 melanoma): > 100 µM
- TGI (SNB-19 CNS): > 100 µM
- TGI (LOX IMVI melanoma): > 100 µM
- TGI (HCC-2998 colon): > 100 µM
- TGI (XF 498 CNS): > 100 µM
- TGI (TK-10 renal): > 100 µM
- TGI (UACC-257 melanoma): > 100 µM
- TGI (SW-620 colon): > 100 µM
- TGI (HL-60(TB) leukemia): > 100 µM
- TGI (MOLT-4 leukemia): > 100 µM
- TGI (KM12 colon): > 100 µM
- TGI (EKVX NSCLC): > 100 µM
- TGI (UO-31 renal): > 100 µM
- TGI (KM20L2 colon): > 100 µM
- TGI (ACHN renal): > 100 µM
- TGI (A549 NSCLC): > 100 µM
- TGI (IGROV1 ovarian): > 100 µM
- TGI (SN12C renal): > 100 µM
- TGI (DLD-1 colon): > 100 µM
- TGI (COLO 205 colon): > 100 µM
- TGI (HOP-62 NSCLC): > 100 µM
- TGI (HOP-18 NSCLC): > 100 µM
- TGI (MALME-3M melanoma): > 100 µM
- TGI (SK-MEL-5 melanoma): > 100 µM
- TGI (NCI-H460 lung): > 100 µM
- TGI (M19-MEL melanoma): > 100 µM
- TGI (SK-MEL-2 melanoma): > 100 µM
- TGI (SNB-75 CNS): > 100 µM
- TGI (786-0 renal): > 100 µM
- TGI (NCI-H23 lung): > 100 µM
- TGI (A498 renal): > 100 µM
- TGI (DMS 273 small cell lung): > 100 µM
- TGI (CCRF-CEM leukemia): > 100 µM
- TGI (NCI-H522 lung): > 100 µM
- TGI (K-562 leukemia): > 100 µM
- TGI (RXF-631 renal): > 100 µM

SMILES: COc1cc(CN[C@H]2CCc3cc(OC)c(OC)c(OC)c3-c3ccc(SC)c(=O)cc32)cc(OC)c1
- GI50 (HT29 colon): < 0.01 µM
- TGI (HT29 colon): 0.0627 µM and 0.0251 µM
- GI50 (SF-295 CNS): 0.0187 µM
- TGI (RXF 393 renal): 0.0372 µM
- TGI (SR leukemia): 19.4 µM
- GI50 (SNB-78 CNS): < 0.01 µM
- TGI (SNB-78 CNS): > 100 µM
- GI50 (OVCAR-5 ovarian): > 100 µM
- TGI (OVCAR-5 ovarian): > 100 µM
- TGI (OVCAR-4 ovarian): > 100 µM
- GI50 (OVCAR-3 ovarian): 0.0145 µM
- TGI (OVCAR-3 ovarian): 0.127 µM and 0.0444 µM
- TGI (HCT-15 colon): 0.239 µM
- GI50 (LXFL 529 NSCLC): 0.0214 µM
- TGI (LXFL 529 NSCLC): > 100 µM
- GI50 (CAKI-1 renal): 0.0282 µM
- TGI (CAKI-1 renal): > 100 µM
- GI50 (SK-OV-3 ovarian): 0.0171 µM
- GI50 (SF-539 CNS): 0.0173 µM
- TGI (SF-539 CNS): 0.0455 µM and 0.0424 µM
- GI50 (SF-268 CNS): 0.0248 µM
- TGI (UACC-62 melanoma): 0.0605 µM
- GI50 (NCI-H226 lung): 0.0231 µM
- TGI (NCI-H226 lung): 0.095 µM and 0.0919 µM
- GI50 (OVCAR-8 ovarian): 0.04 µM
- TGI (OVCAR-8 ovarian): 31.8 µM
- GI50 (HCT-116 colon): < 0.01 µM
- TGI (HCT-116 colon): 0.174 µM and 0.127 µM
- GI50 (U251 CNS): 0.0247 µM
- TGI (U251 CNS): 0.0873 µM and 0.0635 µM
- GI50 (DMS 114 small cell lung): 0.0166 µM
- TGI (DMS 114 small cell lung): 0.0505 µM and 0.0613 µM
- GI50 (SK-MEL-28 melanoma): < 0.01 µM
- TGI (SK-MEL-28 melanoma): > 100 µM
- TGI (SNB-19 CNS): > 100 µM
- GI50 (LOX IMVI melanoma): 0.0173 µM
- GI50 (HCC-2998 colon): 0.0204 µM
- TGI (HCC-2998 colon): 0.108 µM and 0.0748 µM
- TGI (XF 498 CNS): 0.977 µM
- GI50 (TK-10 renal): 0.0412 µM
- TGI (TK-10 renal): 77.1 µM
- GI50 (UACC-257 melanoma): 0.103 µM
- TGI (UACC-257 melanoma): > 100 µM
- GI50 (SW-620 colon): < 0.01 µM
- TGI (SW-620 colon): > 100 µM
- GI50 (HL-60(TB) leukemia): 0.024 µM
- TGI (HL-60(TB) leukemia): > 100 µM
- GI50 (MOLT-4 leukemia): 0.0476 µM
- TGI (MOLT-4 leukemia): 85.5 µM
- GI50 (KM12 colon): < 0.01 µM
- TGI (KM12 colon): 0.482 µM and 0.137 µM
- GI50 (EKVX NSCLC): 0.0287 µM
- TGI (EKVX NSCLC): > 100 µM
- GI50 (KM20L2 colon): 0.013 µM
- TGI (KM20L2 colon): 0.0425 µM and 0.0307 µM
- GI50 (ACHN renal): 0.0662 µM
- TGI (ACHN renal): > 100 µM
- GI50 (HOP-92 NSCLC): 0.207 µM
- TGI (HOP-92 NSCLC): 68.7 µM
- TGI (A549 NSCLC): > 100 µM
- GI50 (IGROV1 ovarian): 0.069 µM
- TGI (IGROV1 ovarian): > 100 µM
- GI50 (SN12C renal): 0.0623 µM
- TGI (SN12C renal): > 100 µM
- GI50 (DLD-1 colon): 0.0232 µM
- TGI (DLD-1 colon): > 100 µM
- GI50 (COLO 205 colon): 0.0145 µM
- TGI (COLO 205 colon): 0.105 µM and 0.0816 µM
- GI50 (HOP-62 NSCLC): 0.0814 µM
- TGI (HOP-62 NSCLC): > 100 µM
- GI50 (HOP-18 NSCLC): > 100 µM
- TGI (HOP-18 NSCLC): > 100 µM
- GI50 (MALME-3M melanoma): < 0.01 µM
- TGI (MALME-3M melanoma): > 100 µM
- GI50 (NCI-H460 lung): 0.031 µM
- GI50 (SK-MEL-2 melanoma): 0.0184 µM
- TGI (SK-MEL-2 melanoma): 0.474 µM
- TGI (SNB-75 CNS): 0.0641 µM
- GI50 (786-0 renal): 0.0307 µM
- TGI (786-0 renal): 30.8 µM
- GI50 (NCI-H23 lung): 0.0228 µM
- TGI (NCI-H23 lung): 0.0786 µM and 0.492 µM
- TGI (RPMI-8226 leukemia): 24.2 µM
- TGI (A498 renal): 0.167 µM
- GI50 (DMS 273 small cell lung): < 0.01 µM
- TGI (DMS 273 small cell lung): 0.14 µM
- GI50 (NCI-H522 lung): 0.0212 µM
- TGI (NCI-H522 lung): 0.0677 µM and 0.052 µM
- TGI (K-562 leukemia): 10.4 µM
- TGI (RXF-631 renal): 0.358 µM
